Key:
[1] = target: T1, recombinant human adrenergic beta 1 receptors (Homo sapiens, UniProt P08588); assay: Adrenergic β1 [125I]-Iodocyanopindolol binding; details: inhibition of [125I]-Iodocyanopindolol binding (0.036 nM); read-out: β1 bind p IC50 (converted)
T1 construct: purchased Euroscreen
Description: (§1) Membranes containing recombinant human adrenergic beta 1 receptors were obtained from Euroscreen. These were diluted in Assay Buffer (50 mM HEPES, 1 mM EDTA, 120 mM NaCl, 0.1% gelatin, pH 7.4) to provide a final concentration of membranes that gave a clear window between maximum and minimum specific binding.
Assays were performed in U-bottomed 96-well polypropylene plates. 10 μL [^125I]-Iodocyanopindolol (0.036 nM final concentration) and 10 μL of test compound (10× final concentration) were added to each test well. For each assay plate 8 replicates were obtained for [^125I]-Iodocyanopindolol binding in the presence of 10 μL vehicle (10% (v/v) DMSO in Assay Buffer; defining maximum binding) or 10 μL Propranolol (10 μM final is concentration; defining non-specific binding (NSB)). Membranes were then added to achieve a final volume of 100 μL. […] Five washes with 250 μL wash buffer (50 mM HEPES, 1 mM EDTA, 120 mM NaCl, pH 7.4) were performed at 4° C. to remove unbound radioactivity. […] The plates were sealed (TopSeal A) and filter-bound radioactivity was measured with a scintillation counter (TopCount, Packard BioScience) using a 3-minute counting protocol.
(§2) Total specific binding (B0) was determined by subtracting the mean NSB from the mean maximum binding. […]

[2] = target: T2, recombinant human Dopamine Subtype D2s receptors (Homo sapiens, UniProt P14416); assay: Dopamine D2 [3H]-spiperone binding; details: inhibition of [3H]-spiperone binding (0.16 nM); read-out: D2 bind pIC50 (converted)
T2 construct: purchased Perkin Elmer
T2 sequence (P14416 1-414 isoform P14416-2): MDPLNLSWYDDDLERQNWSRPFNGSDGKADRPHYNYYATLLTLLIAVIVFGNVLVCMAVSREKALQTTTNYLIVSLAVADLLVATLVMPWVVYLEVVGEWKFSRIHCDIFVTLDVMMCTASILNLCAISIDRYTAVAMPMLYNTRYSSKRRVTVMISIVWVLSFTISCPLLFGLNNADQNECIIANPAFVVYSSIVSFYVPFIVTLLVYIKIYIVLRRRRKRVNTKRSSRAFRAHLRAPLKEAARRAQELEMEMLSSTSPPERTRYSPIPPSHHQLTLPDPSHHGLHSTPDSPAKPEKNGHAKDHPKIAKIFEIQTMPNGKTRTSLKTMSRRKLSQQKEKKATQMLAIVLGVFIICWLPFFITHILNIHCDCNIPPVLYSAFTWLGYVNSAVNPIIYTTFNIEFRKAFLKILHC
Description: as §1, with “Dopamine Subtype D2s” for “adrenergic beta 1”, “Perkin Elmer.” for “Euroscreen.”
Assays were performed in U-bottomed 96-well polypropylene plates. 30 μL [^3H]-spiperone (0.16 nM final concentration) and 30 μL of test compound (10× final concentration) were added to each test well. For each assay plate 8 replicates were obtained for [^3H]-spiperone binding in the presence of 30 μL vehicle (10% (v/v) DMSO in Assay Buffer; defining maximum binding) or 30 μL Haloperidol (10 μM final concentration; defining non-specific binding (NSB)). Membranes were then added to achieve a final volume of 300 μL. […] Five washes with 250 μL wash buffer (50 mM HEPES, 1 mM EDTA, 120 mM NaCl, pH 7.4) were performed at 4° C. to remove unbound radioactivity. […] The plates were sealed (TopSeal A) and filter-bound radioactivity was measured with a scintillation counter (TopCount, Packard BioScience) using a 3-minute counting protocol.
as §2

T1 sequence (P08588 whole entry): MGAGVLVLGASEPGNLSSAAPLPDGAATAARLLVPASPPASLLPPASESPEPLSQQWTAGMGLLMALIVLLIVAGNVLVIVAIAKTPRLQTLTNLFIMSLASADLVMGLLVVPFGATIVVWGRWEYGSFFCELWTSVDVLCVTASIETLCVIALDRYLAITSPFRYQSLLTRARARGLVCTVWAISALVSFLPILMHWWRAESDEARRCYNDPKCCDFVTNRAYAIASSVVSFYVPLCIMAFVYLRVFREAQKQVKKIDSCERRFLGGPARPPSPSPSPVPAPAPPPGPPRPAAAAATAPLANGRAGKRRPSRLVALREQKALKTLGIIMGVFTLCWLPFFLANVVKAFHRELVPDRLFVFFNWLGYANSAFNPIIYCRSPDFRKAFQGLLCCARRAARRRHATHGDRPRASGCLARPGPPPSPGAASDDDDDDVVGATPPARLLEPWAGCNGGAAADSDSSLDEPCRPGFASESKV

SMILES: CCCCC[C@@H](C)N(CCNCCc1ccc(O)c2c1OCC(=O)N2)C(=O)CCNCCc1ccccc1 [Example 60, (R)—N-(Heptan-2-yl)-N-(2-(2-(5-hydroxy-3-oxo-3,4-dihydro-2H-benzo[b][1,4]oxazin-8-yl)ethylamino)ethyl)-3-(phenethylamino)propanamide bis(trifluoroacetate)]
- IC50 [1]: 2510 nM
- IC50 [2]: 50.1 nM

Source: patent US20120142646A1, “Novel Compounds 621” (priority 2006, published 2012)
